Experimental findings from ChEMBL document CHEMBL1201862, “PubChem BioAssay data set” (2004) are described below.

Some test systems named below: SNB-19; ACHN; SW-620; TK-10; K562; RXF 393; NCI-H226; LOX IMVI; SK-MEL-5; SK-MEL-28; KM12; OVCAR-5; OVCAR-8; SK-MEL-2; UACC-257; MDA-MB-231; MCF7; MDA-MB-435; Hs-578T; DU-145.
What all share (assay): inhibition of tumour cell growth, NCI panel, 48 h

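Five concentrations, 48 hours, 96-well plates. Abbreviation: GI50, concentration required for 50% inhibition of growth.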 Calls of active or inactive are those of the source. Cut-off read from the data, not from the text of the source: active = GI50 up to about 1.1 µM and inactive = higher. Some results are limits rather than exact numbers.

As to `COc1cc(NCC(C#N)C#N)ccc1/N=N/c1ccc(Cl)cc1`, the GI50 is 13.1 µM (inactive) with SNB-19; 31.8 µM (inactive) in the assay on ACHN; 20.8 µM (inactive) in the assay on SW-620; 29.8 µM (inactive) with TK-10; 22.1 µM (inactive) in the assay on K562; 43.6 µM (inactive) with RXF 393. Further, the GI50 is 30.5 µM (inactive) with NCI-H226; 18.2 µM (inactive) in the assay with LOX IMVI; 23 µM (inactive) with SK-MEL-5; 27.2 µM (inactive) in the assay on SK-MEL-28; 14.2 µM (inactive) in the assay on KM12; 21.8 µM (inactive) with OVCAR-5. For the same molecule, the results for the GI50 in the assay with OVCAR-8 and with SK-MEL-2 were 29.7 µM (inactive) and 21.7 µM (inactive), respectively.

In the case of `C/C=C/C=C/C=C/C=C/C(=O)O`, the GI50 in the assay with UACC-257, in the assay with SNB-19, with ACHN, in the assay with SW-620, with K562 and in the assay with RXF 393 was > 100 µM (inactive) throughout. Further, the GI50 in the assay on NCI-H226, in the assay on LOX IMVI, in the assay with SK-MEL-5, in the assay on SK-MEL-28, in the assay with KM12 and with OVCAR-5 was > 100 µM (inactive) in each case. The GI50 with OVCAR-8 and in the assay with SK-MEL-2 was > 100 µM (inactive) throughout.

`O=c1[nH]c2ccccc2c2oc(-c3ccccc3)nc12`: the GI50 in the assay with MDA-MB-231 is 17.3 µM (inactive); with UACC-257, > 100 µM (inactive); in the assay with SNB-19, 26.1 µM (inactive); with ACHN, > 100 µM (inactive); in the assay on MCF7, 44.8 µM (inactive); in the assay with SW-620, 22.9 µM (inactive). Also, the GI50 in the assay with TK-10 was 54.6 µM (inactive); in the assay with MDA-MB-435, 18.4 µM (inactive); with K562, 36.1 µM (inactive); in the assay on RXF 393, 20.4 µM (inactive); in the assay on NCI-H226, 88.9 µM (inactive); in the assay on Hs-578T, 25.1 µM (inactive). Besides, the GI50 is 21.3 µM (inactive) with LOX IMVI; 30.5 µM (inactive) in the assay with SK-MEL-5; 50.5 µM (inactive) in the assay on KM12; > 100 µM (inactive) in the assay on OVCAR-5; 22.4 µM (inactive) with OVCAR-8; 24.2 µM (inactive) in the assay on SK-MEL-2.

For the molecule `COc1cc2c3c(n(C)c(=O)c2cc1OC)-c1cc2c(cc1/C3=C/CCCCBr)OCO2`, the GI50 is > 100 µM (inactive) in the assay on MDA-MB-231; > 100 µM (inactive) in the assay on UACC-257; > 100 µM (inactive) in the assay with SNB-19; 4.4 µM (inactive) in the assay with ACHN; 4.73 µM (inactive) in the assay on MCF7; 16.1 µM (inactive) with SW-620. Moreover, the GI50 was > 100 µM (inactive) with TK-10; 35.6 µM (inactive) in the assay with K562; > 100 µM (inactive) in the assay on RXF 393; > 100 µM (inactive) with Hs-578T; 62.8 µM (inactive) in the assay on LOX IMVI; 54 µM (inactive) in the assay on SK-MEL-5. The GI50 with SK-MEL-28, with KM12, with OVCAR-5, with OVCAR-8 and in the assay with SK-MEL-2 was > 100 µM (inactive) each time.

Turning to `O=C(/C=C/c1c(O)ccc2ccccc12)c1cccc(O)c1`, the GI50 in the assay with UACC-257 is 76.9 µM (inactive); in the assay with SNB-19 it was > 100 µM (inactive); in the assay on ACHN, > 100 µM (inactive); in the assay on SW-620, > 100 µM (inactive); with TK-10, > 100 µM (inactive); with K562 it was 44.3 µM (inactive). For the same molecule, the GI50 with RXF 393 is > 77.4 µM (inactive); in the assay on NCI-H226 it was > 100 µM (inactive); in the assay with LOX IMVI, 41.8 µM (inactive); with SK-MEL-5 it was 50.4 µM (inactive); in the assay on SK-MEL-28, > 100 µM (inactive); with KM12, > 100 µM (inactive). Besides, the GI50 with OVCAR-5 was > 100 µM (inactive); in the assay with OVCAR-8, > 100 µM (inactive); with SK-MEL-2, 42.3 µM (inactive).

Take `CC(C)C1CNC2N1C(=O)C2(C)OCc1ccccc1` (centres undefined): the GI50 in the assay with UACC-257, in the assay on SNB-19, in the assay on ACHN, in the assay with SW-620, in the assay with TK-10 and in the assay with K562 was > 100 µM (inactive) each time. The GI50 with RXF 393 was > 100 µM (inactive); with NCI-H226, 40.6 µM (inactive); in the assay with LOX IMVI, > 100 µM (inactive); in the assay with SK-MEL-5, > 100 µM (inactive); in the assay with SK-MEL-28 it was > 100 µM (inactive); in the assay with OVCAR-8, > 100 µM (inactive). The GI50 in the assay with SK-MEL-2 is > 100 µM (inactive).

Regarding `C#CCOC(=O)C=[N+]=[N-]`, the GI50 with MDA-MB-231, in the assay on UACC-257, in the assay on SNB-19, in the assay with ACHN, in the assay on MCF7 and in the assay on SW-620 was > 10 µM (inactive) in each case. Also, the GI50 in the assay with MDA-MB-435, in the assay on K562, with RXF 393, in the assay on NCI-H226, in the assay on LOX IMVI and in the assay on SK-MEL-28 was > 10 µM (inactive) in each case. In addition, the GI50 in the assay on KM12, in the assay with OVCAR-5, in the assay on OVCAR-8, with SK-MEL-2 and in the assay on DU-145 was > 10 µM (inactive) each time.

In the case of `CCOc1cc2c(OCc3ccccc3)cc3c4cc(OC)c(OC)cc4c[n+](C)c3c2cc1OC`, the GI50 in the assay with MDA-MB-231 was 2.29 µM (inactive); in the assay with UACC-257, 1.62 µM (inactive); in the assay with SNB-19, 0.385 µM (active); in the assay with ACHN it was 19.4 µM (inactive); with MCF7, 0.671 µM (active); in the assay with SW-620 it was 1.47 µM (inactive). Moreover, the GI50 in the assay on TK-10 is 10.3 µM (inactive); in the assay with MDA-MB-435, 0.789 µM (active); in the assay with K562 it was 1.18 µM (inactive); in the assay with RXF 393 it was 2.4 µM (inactive); in the assay with NCI-H226, 1.5 µM (inactive); in the assay with LOX IMVI, 2.07 µM (inactive). Also, the GI50 in the assay on SK-MEL-5 is 1.38 µM (inactive); in the assay with SK-MEL-28 it was 1.36 µM (inactive); with KM12, 1.15 µM (inactive); in the assay on OVCAR-5, 7.13 µM (inactive); in the assay on OVCAR-8 it was 2.19 µM (inactive); in the assay on SK-MEL-2 it was 1.22 µM (inactive). Also, the GI50 in the assay on DU-145 was 3.62 µM (inactive).

Turning to `Nc1ccc2c(c1)C(=O)N(OS(=O)(=O)c1ccccc1)C2=O`, the GI50 in the assay with UACC-257 is > 100 µM (inactive); in the assay on SNB-19, > 100 µM (inactive); in the assay on ACHN, > 100 µM (inactive); in the assay with SW-620, 49.8 µM (inactive); with TK-10, > 100 µM (inactive); in the assay on K562, 86.1 µM (inactive). In addition, the GI50 with RXF 393 is > 100 µM (inactive); in the assay with NCI-H226 it was > 100 µM (inactive); in the assay with LOX IMVI it was 35.5 µM (inactive); in the assay with SK-MEL-5, > 100 µM (inactive); in the assay with SK-MEL-28, > 100 µM (inactive); in the assay on KM12, > 100 µM (inactive). Further, the GI50 was > 100 µM (inactive) in the assay with OVCAR-5, 56.9 µM (inactive) with OVCAR-8 and > 100 µM (inactive) with SK-MEL-2.

For `O=c1cc(-c2ccccc2)[nH]c2cc(Cl)cc(Cl)c12`, the GI50 in the assay with UACC-257 was > 100 µM (inactive); in the assay with ACHN, 43.9 µM (inactive); in the assay on SW-620 it was > 100 µM (inactive); in the assay on TK-10, 46.1 µM (inactive); with K562, 7.31 µM (inactive); with RXF 393, 15.2 µM (inactive). Besides, the GI50 in the assay on NCI-H226 was 37.8 µM (inactive); in the assay on LOX IMVI it was 70 µM (inactive); in the assay on SK-MEL-5 it was 37.8 µM (inactive); in the assay with SK-MEL-28, > 100 µM (inactive); in the assay on KM12, 5.04 µM (inactive); in the assay with OVCAR-5, > 100 µM (inactive). Also, the GI50 in the assay on OVCAR-8 was 26.1 µM (inactive); with SK-MEL-2 it was 46.1 µM (inactive).

As for `Clc1ccc2[nH]c(CCSCCc3nc4ccc(Cl)cc4[nH]3)nc2c1`, the GI50 with UACC-257 is 12.7 µM (inactive); with ACHN, 2.25 µM (inactive); with SW-620, 14 µM (inactive); with TK-10, 10.3 µM (inactive); in the assay with K562, 16.8 µM (inactive); in the assay with RXF 393, 17.5 µM (inactive). The GI50 in the assay with NCI-H226 was 13.4 µM (inactive); with LOX IMVI, 12.8 µM (inactive); with SK-MEL-5, 5.87 µM (inactive); with KM12 it was 15.2 µM (inactive); with OVCAR-5, 12.4 µM (inactive); with OVCAR-8, 14.2 µM (inactive). In the assay on SK-MEL-2, the GI50 was 15.3 µM (inactive).

On to `COc1cc(O)c2c(c1O)C(=O)c1cc(C)ncc1C2=O`, for which the GI50 is 15 µM (inactive) with UACC-257; 21.6 µM (inactive) with SNB-19; 24.3 µM (inactive) in the assay with ACHN; 20.2 µM (inactive) in the assay on SW-620; > 50 µM (inactive) in the assay with TK-10; 20 µM (inactive) with K562. The GI50 is 18.5 µM (inactive) with RXF 393; 45 µM (inactive) with NCI-H226; 13.9 µM (inactive) with LOX IMVI; 11.6 µM (inactive) with SK-MEL-5; 26.5 µM (inactive) in the assay on SK-MEL-28; 17.9 µM (inactive) in the assay on KM12. Moreover, the GI50 is 44.9 µM (inactive) in the assay with OVCAR-5, 21.8 µM (inactive) in the assay on OVCAR-8 and 22.3 µM (inactive) in the assay with SK-MEL-2.
